Test results published in PubChem BioAssay AID248 (DTP/NCI, 2004).
Values joined by “and” are separate entries in the source; they are usually repeats but may differ in a detail not shown here. Equal entries are not always repeated. Inconclusive results and toxic doses are left out. Cut-off read from the data, not from the text of the source: active = T/C of 150% or more; inactive = T/C below 125%.

Tested on: L1210 leukemia ip in BDF1 mice, survival T/C
Assay: NCI In Vivo Anticancer Drug Screen. Data for tumor model L1210 Leukemia (intraperitoneal) in B6D2F1 (BDF1) mice
Conditions: endpoint: mean survival time, higher = longer survival
Summary of the method: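 Read-out is survival time, reported as the treated-group measurement over the vehicle-control measurement.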

[1] = dose: 100.0 mg/kg/injection, schedule: Q01DX009 (ip), vehicle: Klucel (hydroxypropylcellulose) (HPC)
[2] = dose: 200.0 mg/kg/injection, schedule: Q01DX009 (ip), vehicle: Klucel (hydroxypropylcellulose) (HPC)
[3] = dose: 400.0 mg/kg/injection, schedule: Q01DX009 (ip), vehicle: Klucel (hydroxypropylcellulose) (HPC)
[4] = dose: 100.0 mg/kg/injection, schedule: Q01DX001 (ip), vehicle: saline
[5] = dose: 200.0 mg/kg/injection, schedule: Q01DX001 (ip), vehicle: saline

Measured: T/C

O=NC1C(Cl)C2CC1C1C(Br)C(Br)CC21 (stereo not given)
inactive: dose: 12.5 mg/kg/injection, schedule: Q04DX003 (ip), vehicle: Klucel (hydroxypropylcellulose) (HPC) 100 % of control | dose: 25.0 mg/kg/injection, schedule: Q01DX009 (ip), vehicle: Klucel (hydroxypropylcellulose) (HPC) 93 % of control | dose: 25.0 mg/kg/injection, schedule: Q04DX003 (ip), vehicle: Klucel (hydroxypropylcellulose) (HPC) 102 % of control | dose: 50.0 mg/kg/injection, schedule: Q01DX001 (ip), vehicle: Klucel (hydroxypropylcellulose) (HPC) 95 % of control | dose: 50.0 mg/kg/injection, schedule: Q01DX009 (ip), vehicle: Klucel (hydroxypropylcellulose) (HPC) 93 % of control | dose: 50.0 mg/kg/injection, schedule: Q04DX003 (ip), vehicle: Klucel (hydroxypropylcellulose) (HPC) 100 % of control | dose: 100.0 mg/kg/injection, schedule: Q01DX001 (ip), vehicle: Klucel (hydroxypropylcellulose) (HPC) 92 % of control | [1] 88 % of control | dose: 150.0 mg/kg/injection, schedule: Q01DX009 (ip), vehicle: saline 90 % of control | dose: 200.0 mg/kg/injection, schedule: Q01DX001 (ip), vehicle: Klucel (hydroxypropylcellulose) (HPC) 89 % of control | dose: 335.0 mg/kg/injection, schedule: Q01DX009 (ip), vehicle: saline 94 % of control

CN(C)c1ccc(/C=C2/CCCCC2=O)cc1
inactive: [1] 98 % of control | dose: 100.0 mg/kg/injection, schedule: Q04DX003 (ip), vehicle: Klucel (hydroxypropylcellulose) (HPC) 93 % of control | [2] 109 % of control | dose: 200.0 mg/kg/injection, schedule: Q04DX003 (ip), vehicle: Klucel (hydroxypropylcellulose) (HPC) 103 % of control | [3] 96 % of control | dose: 400.0 mg/kg/injection, schedule: Q04DX003 (ip), vehicle: Klucel (hydroxypropylcellulose) (HPC) 103 % of control

ClC1(Cl)C2CCCCC21N1CCCCC1 (stereo not given)
inactive: dose: 50.0 mg/kg/injection, schedule: Q01DX009 (ip), vehicle: saline 102 % of control | dose: 50.0 mg/kg/injection, schedule: Q04DX003 (ip), vehicle: saline 115 % of control | [4] 104 % of control | dose: 100.0 mg/kg/injection, schedule: Q01DX009 (ip), vehicle: saline 87 % of control | dose: 100.0 mg/kg/injection, schedule: Q04DX003 (ip), vehicle: saline 94 % of control | [5] 98 % of control | dose: 200.0 mg/kg/injection, schedule: Q04DX003 (ip), vehicle: saline 101 % of control

O=C1C(NCc2c(O)ccc3ccccc23)CON1C(c1ccccc1)(c1ccccc1)c1ccccc1 (stereo not given)
inactive: dose: 75.0 mg/kg/injection, schedule: Q04DX003 (ip), vehicle: saline 89 % of control | dose: 300.0 mg/kg/injection, schedule: Q04DX003 (ip), vehicle: saline 91 % of control

O=[N+]([O-])c1ccccc1N=Nc1c(O)[nH]c2ccc(Br)cc12
inactive: [4] 98 % of control | [5] 101 % of control | dose: 400.0 mg/kg/injection, schedule: Q01DX001 (ip), vehicle: saline 113 % of control

CCC1(CC2CCCN(C)C2)c2ccccc2Sc2ccccc21 (stereo not given)
inactive: dose: 8.0 mg/kg/injection, schedule: Q01DX015 (ip), vehicle: carboxymethylcellulose (CMC) 105 % of control | dose: 16.0 mg/kg/injection, schedule: Q01DX015 (ip), vehicle: carboxymethylcellulose (CMC) 94 % of control | dose: 32.0 mg/kg/injection, schedule: Q01DX015 (ip), vehicle: carboxymethylcellulose (CMC) 91 % of control | dose: 64.0 mg/kg/injection, schedule: Q01DX015 (ip), vehicle: carboxymethylcellulose (CMC) 103 % of control and 110 % of control

CSc1ccc(OC(=O)Nc2ccccc2[N+](=O)[O-])cc1C
inactive: [1] 109 % of control | [2] 94 % of control | [3] 92 % of control

Cc1cc(N(CCOS(C)(=O)=O)CCOS(C)(=O)=O)ccc1C=Nc1ccc(C(=O)O)cc1
inactive: dose: 2.5 mg/kg/injection, schedule: Q04DX003 (ip), vehicle: Klucel (hydroxypropylcellulose) (HPC) 108 % of control | dose: 5.0 mg/kg/injection, schedule: Q04DX003 (ip), vehicle: Klucel (hydroxypropylcellulose) (HPC) 113 % of control | dose: 6.6 mg/kg/injection, schedule: Q04DX003 (ip), vehicle: Klucel (hydroxypropylcellulose) (HPC) 102 % of control | dose: 10.0 mg/kg/injection, schedule: Q04DX003 (ip), vehicle: Klucel (hydroxypropylcellulose) (HPC) 103 % of control | dose: 15.0 mg/kg/injection, schedule: Q04DX003 (ip), vehicle: Klucel (hydroxypropylcellulose) (HPC) 118 % of control | dose: 20.0 mg/kg/injection, schedule: Q04DX003 (ip), vehicle: Klucel (hydroxypropylcellulose) (HPC) 113 % of control | dose: 40.0 mg/kg/injection, schedule: Q04DX003 (ip), vehicle: Klucel (hydroxypropylcellulose) (HPC) 114 % of control

Cc1nonc1-c1nc(SCC(=O)NN)n[nH]1
inactive: dose: 25.0 mg/kg/injection, schedule: Q04DX002 (ip), vehicle: Klucel (hydroxypropylcellulose) (HPC) 102 % of control | dose: 50.0 mg/kg/injection, schedule: Q04DX002 (ip), vehicle: Klucel (hydroxypropylcellulose) (HPC) 98 % of control
